Measurements reported in patent US20060110332A1, “Agent for medicamentous treatment of acute and chronic pain” (Max-Delbruck-Centrum Fur Molekulare Medizin, priority 2002, published 2006).
“Also recorded” adds a separate entry of the source. Read-outs that look alike come from different tables or passages of the source.

Experiments:
[1] = system: T-type calcium channels; conditions: cited from earlier work
[2] = reason for removal from the market; cited from earlier work
[3] = system: CaV3.3; conditions: compared with CaV3.2, cited from earlier work
[4] = system: D-hair mechanoreceptors; assay: Skin-nerve preparation (saphenous nerve), D-hair mechanoreceptors; set-up: species or system mice; conditions: 3 μM mibefradil in the bath solution
Protocol: (§1) The use of the skin-nerve preparation, which the present invention is based on, allows for the electrophysiological analysis of the different neurofibre types which innervate the skin (Koltzenburg et al., 1997, see above). The saphenous nerve and the region of the skin that it innervates are prepared from freshly killed mice and are mounted in a bath of physiological buffer. After mechanical or electrical stimulation of the skin, the nerve signals can be received directly from the nerve. For determining the effective concentration, tests were carried out with different concentrations of mibefradil in the bath solution. The EC50 of mibefradil on cells is between 0.1 and 1 μM. […] The unspecific blockade at high concentrations may be due to the fact that mibefradil, at high concentrations, has a very unspecific effect on other ubiquitously expressed calcium channels. Such blocking is lost at lower concentrations. The blocking of some AM mechanoreceptors also at low concentrations of mibefradil could have two reasons. The first possibility is that AM mechanoreceptors, too, express CaV3.2. This, however, is not very likely based on the findings obtained by the in-situ hybridisation within the framework of the present invention. It may rather be assumed that a different isotype, i.e. CaV3.3 is expressed in AM mechanoreceptors. […]

[5] = system: AM mechanoreceptors; assay: Skin-nerve preparation (saphenous nerve), AM mechanoreceptors; set-up: species or system mice; conditions: 3 μM mibefradil in the bath solution
Protocol: as §1

[6] = system: L-type calcium channels; conditions: cited from earlier work
[7] = target: CaV3.1 (Rattus norvegicus, UniProt O54898); conditions: compared with CaV3.2; cited from earlier work
Sequence of CaV3.1 (O54898 whole entry): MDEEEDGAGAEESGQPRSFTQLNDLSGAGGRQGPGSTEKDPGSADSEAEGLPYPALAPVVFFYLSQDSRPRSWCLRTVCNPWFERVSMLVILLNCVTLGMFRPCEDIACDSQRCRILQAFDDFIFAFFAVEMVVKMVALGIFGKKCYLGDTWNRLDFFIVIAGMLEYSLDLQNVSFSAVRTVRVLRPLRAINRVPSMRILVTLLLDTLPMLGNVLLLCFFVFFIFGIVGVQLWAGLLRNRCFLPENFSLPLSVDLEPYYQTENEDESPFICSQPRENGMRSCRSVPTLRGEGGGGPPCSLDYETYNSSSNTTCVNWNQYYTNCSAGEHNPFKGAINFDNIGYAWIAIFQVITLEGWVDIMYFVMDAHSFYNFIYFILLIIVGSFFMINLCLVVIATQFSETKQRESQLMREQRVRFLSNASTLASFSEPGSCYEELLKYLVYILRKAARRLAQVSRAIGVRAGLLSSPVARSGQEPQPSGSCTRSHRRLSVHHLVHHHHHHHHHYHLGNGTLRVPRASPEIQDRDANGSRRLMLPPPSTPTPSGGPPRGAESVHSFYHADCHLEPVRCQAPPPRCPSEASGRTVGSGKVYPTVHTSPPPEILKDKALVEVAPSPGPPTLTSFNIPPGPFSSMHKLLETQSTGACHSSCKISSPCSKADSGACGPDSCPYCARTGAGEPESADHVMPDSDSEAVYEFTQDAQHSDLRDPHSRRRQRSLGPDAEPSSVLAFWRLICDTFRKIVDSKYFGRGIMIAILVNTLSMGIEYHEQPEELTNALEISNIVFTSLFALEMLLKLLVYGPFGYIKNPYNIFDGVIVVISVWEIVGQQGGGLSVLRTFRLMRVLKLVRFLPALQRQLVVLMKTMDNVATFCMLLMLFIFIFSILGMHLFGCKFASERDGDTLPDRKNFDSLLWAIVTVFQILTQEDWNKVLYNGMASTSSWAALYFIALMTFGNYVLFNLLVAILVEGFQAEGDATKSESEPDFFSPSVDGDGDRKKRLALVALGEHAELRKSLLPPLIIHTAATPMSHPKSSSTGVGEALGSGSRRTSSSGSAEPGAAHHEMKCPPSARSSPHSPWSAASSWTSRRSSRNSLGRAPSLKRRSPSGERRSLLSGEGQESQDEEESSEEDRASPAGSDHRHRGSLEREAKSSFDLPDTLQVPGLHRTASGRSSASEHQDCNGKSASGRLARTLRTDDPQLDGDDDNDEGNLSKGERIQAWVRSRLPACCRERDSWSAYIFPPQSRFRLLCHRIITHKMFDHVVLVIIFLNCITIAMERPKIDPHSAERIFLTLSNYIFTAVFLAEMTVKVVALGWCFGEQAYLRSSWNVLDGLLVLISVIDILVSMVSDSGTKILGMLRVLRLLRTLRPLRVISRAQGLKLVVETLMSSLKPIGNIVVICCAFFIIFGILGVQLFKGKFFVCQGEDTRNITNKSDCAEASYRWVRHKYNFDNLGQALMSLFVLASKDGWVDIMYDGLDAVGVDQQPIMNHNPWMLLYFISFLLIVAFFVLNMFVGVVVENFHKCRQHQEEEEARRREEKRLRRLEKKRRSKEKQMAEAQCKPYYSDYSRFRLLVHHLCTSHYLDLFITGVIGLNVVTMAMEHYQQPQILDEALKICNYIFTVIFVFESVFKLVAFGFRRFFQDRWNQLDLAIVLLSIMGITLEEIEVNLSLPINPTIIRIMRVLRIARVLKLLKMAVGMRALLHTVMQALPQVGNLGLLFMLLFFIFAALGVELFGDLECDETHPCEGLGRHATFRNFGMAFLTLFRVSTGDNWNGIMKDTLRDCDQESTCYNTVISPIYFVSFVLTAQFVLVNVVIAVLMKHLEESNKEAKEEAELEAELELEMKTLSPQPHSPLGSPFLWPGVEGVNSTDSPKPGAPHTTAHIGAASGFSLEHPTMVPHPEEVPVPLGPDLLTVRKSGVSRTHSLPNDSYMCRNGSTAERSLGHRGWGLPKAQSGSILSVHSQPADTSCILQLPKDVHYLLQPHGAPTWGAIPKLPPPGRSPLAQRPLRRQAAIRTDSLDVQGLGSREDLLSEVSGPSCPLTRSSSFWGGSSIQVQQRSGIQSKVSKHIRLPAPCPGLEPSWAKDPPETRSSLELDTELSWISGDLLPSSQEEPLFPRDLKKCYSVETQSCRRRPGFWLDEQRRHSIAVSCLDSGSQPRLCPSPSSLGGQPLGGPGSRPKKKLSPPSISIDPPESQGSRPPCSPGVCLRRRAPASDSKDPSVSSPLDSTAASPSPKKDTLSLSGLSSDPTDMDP

[8] = system: cutaneous mechanotransduction; assay: Skin-nerve preparation (saphenous nerve), mechanical sensitivity of the skin; set-up: species or system mice
Protocol: The use of the skin-nerve preparation, which the present invention is based on, allows for the electrophysiological analysis of the different neurofibre types which innervate the skin (Koltzenburg et al., 1997, see above). The saphenous nerve and the region of the skin that it innervates are prepared from freshly killed mice and are mounted in a bath of physiological buffer. After mechanical or electrical stimulation of the skin, the nerve signals can be received directly from the nerve. For determining the effective concentration, tests were carried out with different concentrations of mibefradil in the bath solution. The EC50 of mibefradil on cells is between 0.1 and 1 μM. […] The unspecific blockade at high concentrations may be due to the fact that mibefradil, at high concentrations, has a very unspecific effect on other ubiquitously expressed calcium channels. Such blocking is lost at lower concentrations. The blocking of some AM mechanoreceptors also at low concentrations of mibefradil could have two reasons. The first possibility is that AM mechanoreceptors, too, express CaV3.2. This, however, is not very likely based on the findings obtained by the in-situ hybridisation within the framework of the present invention. It may rather be assumed that a different isotype, i.e. CaV3.3 is expressed in AM mechanoreceptors. It was not possible to detect CaV3.3 in in-situ hybridisation experiments in spinal ganglia, but other groups reported the expression of this calcium channel in medium-size cells. […] To sum up, it is concluded that the calcium channel CaV3.2 in spinal ganglia specifically expresses in D-hair mechanoreceptors and is therefore indispensable for its function. The discovery that the voltage-dependent calcium channels are involved in the transduction of mechanical stimuli by nociceptive and non-nociceptive neurons is new. Due to their physiological properties together with their specific localisation on the site of the mechanotransduction in the periphery, the calcium channels are ideal targets for pain therapy, which the invention is based on.

[9] = system: living tissue; conditions: cited from earlier work
[10] = target: CaV3.2 (Homo sapiens, UniProt O95180); conditions: cited from earlier work
Sequence of CaV3.2 (O95180 whole entry): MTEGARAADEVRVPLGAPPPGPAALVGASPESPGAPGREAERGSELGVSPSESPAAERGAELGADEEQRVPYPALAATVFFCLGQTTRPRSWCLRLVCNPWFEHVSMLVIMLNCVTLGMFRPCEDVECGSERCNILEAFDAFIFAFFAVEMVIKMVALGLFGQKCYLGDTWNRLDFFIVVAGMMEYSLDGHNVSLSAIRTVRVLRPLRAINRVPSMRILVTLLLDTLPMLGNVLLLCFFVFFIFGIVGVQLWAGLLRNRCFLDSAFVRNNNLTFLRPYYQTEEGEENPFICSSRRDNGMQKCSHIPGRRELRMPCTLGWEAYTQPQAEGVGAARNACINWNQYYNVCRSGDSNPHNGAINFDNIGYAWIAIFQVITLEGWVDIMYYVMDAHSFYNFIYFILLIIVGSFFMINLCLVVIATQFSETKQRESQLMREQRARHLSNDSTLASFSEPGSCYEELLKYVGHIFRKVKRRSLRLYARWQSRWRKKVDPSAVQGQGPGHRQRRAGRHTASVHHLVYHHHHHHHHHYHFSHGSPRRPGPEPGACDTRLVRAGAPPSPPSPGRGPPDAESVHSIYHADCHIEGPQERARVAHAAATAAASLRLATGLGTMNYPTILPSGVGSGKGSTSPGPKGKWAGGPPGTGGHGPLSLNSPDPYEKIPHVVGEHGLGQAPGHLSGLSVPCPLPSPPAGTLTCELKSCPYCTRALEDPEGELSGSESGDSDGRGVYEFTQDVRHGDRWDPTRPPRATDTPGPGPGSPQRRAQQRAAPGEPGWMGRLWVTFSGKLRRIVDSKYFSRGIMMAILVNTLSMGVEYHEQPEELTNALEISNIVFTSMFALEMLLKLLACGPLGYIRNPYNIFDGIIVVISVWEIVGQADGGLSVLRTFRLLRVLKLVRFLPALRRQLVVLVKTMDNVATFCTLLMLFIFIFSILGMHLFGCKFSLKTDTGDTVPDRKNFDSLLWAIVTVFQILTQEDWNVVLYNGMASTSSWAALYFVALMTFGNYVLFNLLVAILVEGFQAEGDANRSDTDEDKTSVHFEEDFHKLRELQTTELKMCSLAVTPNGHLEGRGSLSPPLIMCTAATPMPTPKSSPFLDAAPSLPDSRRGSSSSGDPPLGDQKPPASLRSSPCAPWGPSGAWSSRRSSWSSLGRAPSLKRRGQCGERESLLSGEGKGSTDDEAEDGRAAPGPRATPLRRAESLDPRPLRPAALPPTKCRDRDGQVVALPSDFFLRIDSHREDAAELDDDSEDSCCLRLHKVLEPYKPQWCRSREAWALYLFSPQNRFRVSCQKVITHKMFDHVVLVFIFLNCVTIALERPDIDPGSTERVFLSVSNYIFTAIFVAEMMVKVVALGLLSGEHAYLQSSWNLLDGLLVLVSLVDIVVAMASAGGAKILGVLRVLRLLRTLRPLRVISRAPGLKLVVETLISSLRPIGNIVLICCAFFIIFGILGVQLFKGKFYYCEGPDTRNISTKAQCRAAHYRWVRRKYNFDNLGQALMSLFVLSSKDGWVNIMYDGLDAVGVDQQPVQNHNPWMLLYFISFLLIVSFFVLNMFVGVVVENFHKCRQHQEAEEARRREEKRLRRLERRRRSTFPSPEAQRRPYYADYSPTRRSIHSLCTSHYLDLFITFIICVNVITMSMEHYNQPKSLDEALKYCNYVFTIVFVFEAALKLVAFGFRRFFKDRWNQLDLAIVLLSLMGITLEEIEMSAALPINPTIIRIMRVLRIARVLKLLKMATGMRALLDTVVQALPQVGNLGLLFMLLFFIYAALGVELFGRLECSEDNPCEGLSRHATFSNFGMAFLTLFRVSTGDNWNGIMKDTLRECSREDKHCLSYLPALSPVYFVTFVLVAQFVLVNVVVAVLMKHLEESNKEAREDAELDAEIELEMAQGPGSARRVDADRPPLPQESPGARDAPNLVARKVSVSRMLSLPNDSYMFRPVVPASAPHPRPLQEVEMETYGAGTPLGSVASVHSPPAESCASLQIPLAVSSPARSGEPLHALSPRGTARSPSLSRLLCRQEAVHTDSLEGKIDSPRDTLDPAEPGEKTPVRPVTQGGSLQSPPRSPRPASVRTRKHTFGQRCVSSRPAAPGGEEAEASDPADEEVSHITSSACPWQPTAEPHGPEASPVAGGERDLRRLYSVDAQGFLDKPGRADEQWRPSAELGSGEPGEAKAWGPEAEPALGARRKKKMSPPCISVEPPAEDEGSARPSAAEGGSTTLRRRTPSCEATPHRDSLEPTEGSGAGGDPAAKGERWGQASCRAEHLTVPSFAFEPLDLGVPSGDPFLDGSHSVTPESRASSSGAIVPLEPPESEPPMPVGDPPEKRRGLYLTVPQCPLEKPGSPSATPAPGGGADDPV

Compound | selectivity for T-type calcium channels [1] | interaction with other medicaments [2] | effect / semi-effective concentration on CaV3.3 [3] | effect / semi-effective concentration on CaV3.3 ([3]; listed as Mibefradil) | inhibition of D-hair mechanoreceptors [4] | inhibition of AM mechanoreceptors [5] | concentration blocking L-type relative to that necessary for T-type blocking [6] | effect on T-type isotype CaV3.1 [7] | blocking of mechanotransduction ([8]; higher concentrations of mibefradil) | inhibition of cutaneous mechanotransduction ([8]; low concentrations (25 μM or less)) | blocking of the mechanical sensitivity ([8]; more than 25 μM mibefradil in the bath solution) | cytotoxicity [9] | EC50 on CaV3.2 relative to the other isotypes ([10]; CaV3.2 versus other T-type isotypes) [times] | EC50 ([10]; read-out: EC50 on CaV3.2) [µM]
COCC(=O)O[C@]1(CCN(C)CCCc2nc3ccccc3[nH]2)CCc2cc(F)ccc2[C@@H]1C(C)C [mibefradil] | relatively high selectivity for T-type calcium channels | severe interaction with other medicaments | almost identical | almost identical effect | specifically inhibited | in part, also AM mechanoreceptors are specifically inhibited | about 10 fold | almost identical effect | complex blocking of other mechanoreceptors; also recorded: blocks not only the D-hair mechanotransduction but also the entire mechanotransduction | virtually inhibits the entire cutaneous mechanotransduction | almost complete and unspecific blocking of the mechanical sensitivity | – | – | –
[Ni] [nickel] | – | – | – | – | – | – | – | – | – | – | – | cytotoxic | 70 | ~10
